According to PubChem BioAssay (NCI):
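Interpolation was linear, between the two tested concentrations surrounding the appropriate level; five concentrations were tested over 48 hours in 96-well plates. Here, GI50 denotes the concentration required for 50% inhibition of growth. TGI is the concentration that stops growth completely.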

Experiments:
Assay in all cases: inhibition of tumour cell growth, NCI panel, 48 h
[1] = system: MDA-MB-231 breast
[2] = system: SF-539 CNS
[3] = system: HOP-92 NSCLC
[4] = system: UACC-62 melanoma
[5] = system: TK-10 renal
[6] = system: SK-MEL-5 melanoma
[7] = system: HCT-116 colon
[8] = system: KM12 colon
[9] = system: CAKI-1 renal
[10] = system: A498 renal
[11] = system: SW-620 colon
[12] = system: IGROV1 ovarian
[13] = system: RPMI-8226 leukemia
[14] = system: OVCAR-3 ovarian
[15] = system: SR leukemia
[16] = system: A549 NSCLC
[17] = system: NCI-H460 lung
[18] = system: MDA-MB-435
[19] = system: T-47D breast
[20] = system: 786-0 renal
[21] = system: LOX IMVI melanoma
[22] = system: HS 578T breast
[23] = system: SK-OV-3 ovarian
[24] = system: NCI/ADR-RES ovarian
[25] = system: OVCAR-5 ovarian
[26] = system: MCF7 breast
[27] = system: EKVX NSCLC
[28] = system: SK-MEL-2 melanoma
[29] = system: BT-549 breast
[30] = system: ACHN renal
[31] = system: UO-31 renal
[32] = system: PC-3 prostate
[33] = system: SF-295 CNS
[34] = system: UACC-257 melanoma
[35] = system: U251 CNS
[36] = system: NCI-H226 lung
[37] = system: SF-268 CNS
[38] = system: SN12C renal
[39] = system: SNB-19 CNS
[40] = system: HOP-62 NSCLC
[41] = system: COLO 205 colon
[42] = system: OVCAR-8 ovarian
[43] = system: NCI-H522 lung
[44] = system: RXF 393 renal
[45] = system: K-562 leukemia
[46] = system: HCT-15 colon
[47] = system: HT29 colon
[48] = system: CCRF-CEM leukemia
[49] = system: M14 melanoma
[50] = system: NCI-H23 lung

SMILES: Oc1ccccc1-c1nn(CNc2ccccc2Cl)c(=S)o1
- GI50 [1]: > 100 µM
- TGI [1]: > 100 µM
- GI50 [2]: 37.7 µM
- TGI [2]: 97.7 µM
- GI50 [3]: 16.4 µM
- TGI [3]: 66.2 µM
- GI50 [4]: 71.7 µM
- TGI [4]: > 100 µM
- GI50 [5]: 42.2 µM
- TGI [5]: > 100 µM
- GI50 [6]: > 100 µM
- TGI [6]: > 100 µM
- GI50 [7]: 29.8 µM
- TGI [7]: > 100 µM
- GI50 [8]: > 100 µM
- TGI [8]: > 100 µM
- GI50 [9]: > 100 µM
- TGI [9]: > 100 µM
- GI50 [10]: > 100 µM
- TGI [10]: > 100 µM
- GI50 [11]: 41.9 µM
- TGI [11]: > 100 µM
- GI50 [12]: > 100 µM
- TGI [12]: > 100 µM
- GI50 [13]: 20.2 µM
- TGI [13]: 59.6 µM
- GI50 [14]: 89.7 µM
- TGI [14]: > 100 µM
- GI50 [15]: 25.2 µM
- TGI [15]: 89.6 µM
- GI50 [16]: > 100 µM
- TGI [16]: > 100 µM
- GI50 [17]: 37.4 µM
- TGI [17]: > 100 µM
- GI50 [18]: > 100 µM
- TGI [18]: > 100 µM
- GI50 [19]: 13.5 µM
- TGI [19]: 74.9 µM
- GI50 [20]: > 100 µM
- TGI [20]: > 100 µM
- GI50 [21]: 18.9 µM
- TGI [21]: 35.2 µM
- GI50 [22]: > 100 µM
- TGI [22]: > 100 µM
- GI50 [23]: > 100 µM
- TGI [23]: > 100 µM
- GI50 [24]: 18.2 µM
- TGI [24]: 72.7 µM
- GI50 [25]: 37.2 µM
- TGI [25]: > 100 µM
- GI50 [26]: 40 µM
- TGI [26]: > 100 µM
- GI50 [27]: > 100 µM
- TGI [27]: > 100 µM
- GI50 [28]: > 100 µM
- TGI [28]: > 100 µM
- GI50 [29]: > 100 µM
- TGI [29]: > 100 µM
- GI50 [30]: 16.8 µM
- TGI [30]: 38.5 µM
- GI50 [31]: > 100 µM
- TGI [31]: > 100 µM
- GI50 [32]: 99 µM
- TGI [32]: > 100 µM
- GI50 [33]: 65.2 µM
- TGI [33]: > 100 µM
- GI50 [34]: > 100 µM
- TGI [34]: > 100 µM
- GI50 [35]: 31.4 µM
- TGI [35]: > 100 µM
- GI50 [36]: > 100 µM
- TGI [36]: > 100 µM
- GI50 [37]: > 100 µM
- TGI [37]: > 100 µM
- GI50 [38]: 78.2 µM
- TGI [38]: > 100 µM
- GI50 [39]: > 100 µM
- TGI [39]: > 100 µM
- GI50 [40]: > 100 µM
- TGI [40]: > 100 µM
- GI50 [41]: 27 µM
- TGI [41]: > 100 µM
- GI50 [42]: > 100 µM
- TGI [42]: > 100 µM
- GI50 [43]: > 100 µM
- TGI [43]: > 100 µM
- GI50 [44]: > 100 µM
- TGI [44]: > 100 µM
- GI50 [45]: > 100 µM
- TGI [45]: > 100 µM
- GI50 [46]: 17.9 µM
- TGI [46]: 38.7 µM
- GI50 [47]: 21 µM
- TGI [47]: 63.8 µM
- GI50 [48]: 20.1 µM
- TGI [48]: 55.4 µM
- GI50 [49]: > 100 µM
- TGI [49]: > 100 µM
- GI50 [50]: > 100 µM
- TGI [50]: > 100 µM
